Experiments:
Assay type in all cases: in vivo
[1] = system: redroot pigweed (Amaranthus retroflexus, AMARE); test: Pre-emerge test, greenhouse herbicide activity screening; details: rated 14 days after application, 0 = no damage, 100 = complete death
Method in brief: (§1)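 Plants grown in 10 cm pots of sandy loam mix received acetone-dissolved compounds through a moving flat-fan nozzle. Doses ranged from 15 to 1000 g ai/ha. Pre-emerge pots were seeded one day earlier, post-emerge pots 8–21 days earlier. Fourteen days on, each pot was graded 0–100 for damage.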

[2] = system: barnyardgrass (Echinochloa crus-galli, ECHCG); test: as above; details: rated 14 days after application, 0 = no damage, 100 = complete death
Method in brief: (§2)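 Applied at 15–1000 g ai/ha from acetone in 187 l/ha spray volume. Post-emergence applications included 0.25% v/v non-ionic surfactant and reached plants sown 8–21 days before. Pre-emergence applications were incorporated by surface watering. Efficacy or crop damage was rated on a 0–100 scale after 14 days.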

[3] = system: green foxtail (Setaria viridis, SETVI); test: as above; details: rated 14 days after application, 0 = no damage, 100 = complete death
Method in brief: as §2

[4] = system: ivyleaf morningglory (Ipomoea hederacea, IPOHE); test: as above; details: rated 14 days after application, 0 = no damage, 100 = complete death
Method in brief: as §2

[5] = system: johnsongrass (Sorghum halepense, SORHA); test: as above; details: rated 14 days after application, 0 = no damage, 100 = complete death
Method in brief: as §2

[6] = system: lambsquarters (Chenopodium album, CHEAL); test: as above; details: rated 14 days after application, 0 = no damage, 100 = complete death
Method in brief: as §2

[7] = system: large crabgrass (Digitaria sanguinalis, DIGSA); test: as above; details: rated 14 days after application, 0 = no damage, 100 = complete death
Method in brief: as §2

[8] = system: sicklepod (Cassia obtusifolia, CASOB); test: as above; details: rated 14 days after application, 0 = no damage, 100 = complete death
Method in brief: as §2

[9] = system: velvetleaf (Abutilon theophrasti, ABUTH); test: as above; details: rated 14 days after application, 0 = no damage, 100 = complete death
Method in brief: as §2

[10] = system: field corn (Zea mays L., var. Dekalb 535, CORN); test: Pre-emerge test, crop safety; details: rated 14 days after application, 0 = no damage, 100 = complete death
Method in brief: as §1

[11] = system: upland rice (Oryza sp., var. Tebonnet, RICE); test: Pre-emerge test, crop safety; details: rated 14 days after application, 0 = no damage, 100 = complete death
Method in brief: as §1

[12] = system: barnyardgrass (Echinochloa crus-galli, ECHCG); test: Post-emerge test, greenhouse herbicide activity screening; details: post-emerge, 14 days after application, rating scale 0-100
Method in brief: as §1

[13] = system: green foxtail (Setaria viridis, SETVI); test: as above; details: post-emerge, 14 days after application, rating scale 0-100
Method in brief: as §1

[14] = system: ivyleaf morningglory (Ipomoea hederacea, IPOHE); test: as above; details: post-emerge, 14 days after application, rating scale 0-100
Method in brief: as §1

[15] = system: johnsongrass (Sorghum halepense, SORHA); test: as above; details: post-emerge, 14 days after application, rating scale 0-100
Method in brief: as §1

[16] = system: large crabgrass (Digitaria sanguinalis, DIGSA); test: as above; details: post-emerge, 14 days after application, rating scale 0-100
Method in brief: as §1

[17] = system: redroot pigweed (Amaranthus retroflexus, AMARE); test: as above; details: post-emerge, 14 days after application, rating scale 0-100
Method in brief: as §1

[18] = system: sicklepod (Cassia obtusifolia, CASOB); test: as above; details: post-emerge, 14 days after application, rating scale 0-100
Method in brief: as §1

[19] = system: velvetleaf (Abutilon theophrasti, ABUTH); test: as above; details: post-emerge, 14 days after application, rating scale 0-100
Method in brief: as §1

[20] = system: field corn (Zea mays L., var. Dekalb 535, CORN); test: Post-emerge test, crop safety; details: post-emerge, 14 days after application, rating scale 0-100
Method in brief: as §2

[21] = system: upland rice (Oryza sp., var. Tebonnet, RICE); test: Post-emerge test, crop safety; details: post-emerge, 14 days after application, rating scale 0-100
Method in brief: as §2

Question: `CCOC(=O)C(=O)Nc1c(OC)c(Cl)cc(F)c1-n1c(=O)cc(C(F)(F)F)n(C)c1=O` [2-118] was tested. Which “Pre-emerge Herbicidal Activity, phytotoxicity rating (0-100), AMARE” value ([1]; 63 g ai/ha) did it give?
Answer: Its value is 40.

Question: What about the “Pre-emerge Herbicidal Activity, phytotoxicity rating (0-100), AMARE” value ([1]; 250 g ai/ha) of the same compound?
Answer: The value was 100.

Question: And the “Pre-emerge Herbicidal Activity, phytotoxicity rating (0-100), ECHCG” value ([2]; 63 g ai/ha)?
Answer: The value was 0.

Question: What about the “Pre-emerge Herbicidal Activity, phytotoxicity rating (0-100), ECHCG” value ([2]; 250 g ai/ha) of the same compound?
Answer: Its value is 0.

Question: And the “Pre-emerge Herbicidal Activity, phytotoxicity rating (0-100), SETVI” value ([3]; 63 g ai/ha)?
Answer: The value was 0.

Question: And the “Pre-emerge Herbicidal Activity, phytotoxicity rating (0-100), SETVI” value ([3]; 250 g ai/ha)?
Answer: The value was 50.

Question: And the “Pre-emerge Herbicidal Activity, phytotoxicity rating (0-100), IPOHE” value ([4]; 63 g ai/ha)?
Answer: Its value is 10.

Question: What about the “Pre-emerge Herbicidal Activity, phytotoxicity rating (0-100), IPOHE” value ([4]; 250 g ai/ha) of the same compound?
Answer: Its value is 80.

Question: And the “Pre-emerge Herbicidal Activity, phytotoxicity rating (0-100), SORHA” value ([5]; 63 g ai/ha)?
Answer: The value was 0.

Question: What about the “Pre-emerge Herbicidal Activity, phytotoxicity rating (0-100), SORHA” value ([5]; 250 g ai/ha) of the same compound?
Answer: Its value is 0.

Question: What about the “Pre-emerge Herbicidal Activity, phytotoxicity rating (0-100), CHEAL” value ([6]; 63 g ai/ha) of the same compound?
Answer: The value was 90.

Question: What about the “Pre-emerge Herbicidal Activity, phytotoxicity rating (0-100), CHEAL” value ([6]; 250 g ai/ha) of the same compound?
Answer: Its value is 100.

Question: And the “Pre-emerge Herbicidal Activity, phytotoxicity rating (0-100), DIGSA” value ([7]; 63 g ai/ha)?
Answer: The value was 0.

Question: What about the “Pre-emerge Herbicidal Activity, phytotoxicity rating (0-100), DIGSA” value ([7]; 250 g ai/ha) of the same compound?
Answer: The value was 20.

Question: What about the “Pre-emerge Herbicidal Activity, phytotoxicity rating (0-100), CASOB” value ([8]; 63 g ai/ha) of the same compound?
Answer: The value was 90.

Question: And the “Pre-emerge Herbicidal Activity, phytotoxicity rating (0-100), CASOB” value ([8]; 250 g ai/ha)?
Answer: Its value is 40.

Question: And the “Pre-emerge Herbicidal Activity, phytotoxicity rating (0-100), ABUTH” value ([9]; 63 g ai/ha)?
Answer: The value was 90.

Question: What about the “Pre-emerge Herbicidal Activity, phytotoxicity rating (0-100), ABUTH” value ([9]; 250 g ai/ha) of the same compound?
Answer: Its value is 100.

Question: And the “Pre-emerge phytotoxicity rating (0-100), crop damage, CORN” value ([10]; 63 g ai/ha)?
Answer: Its value is 0.

Question: And the “Pre-emerge phytotoxicity rating (0-100), crop damage, CORN” value ([10]; 250 g ai/ha)?
Answer: Its value is 10.

Question: And the “Pre-emerge phytotoxicity rating (0-100), crop damage, RICE” value ([11]; 63 g ai/ha)?
Answer: The value was 0.

Question: What about the “Pre-emerge phytotoxicity rating (0-100), crop damage, RICE” value ([11]; 250 g ai/ha) of the same compound?
Answer: Its value is 30.

Question: And the “phytotoxicity rating ECHCG” value ([12]; 63 g ai/ha)?
Answer: Its value is 0.

Question: And the “phytotoxicity rating ECHCG” value ([12]; 250 g ai/ha)?
Answer: Its value is 0.

Question: And the “phytotoxicity rating SETVI” value ([13]; 63 g ai/ha)?
Answer: Its value is 0.

Question: And the “phytotoxicity rating SETVI” value ([13]; 250 g ai/ha)?
Answer: Its value is 0.

Question: And the “phytotoxicity rating IPOHE” value ([14]; 63 g ai/ha)?
Answer: The value was 50.

Question: And the “phytotoxicity rating IPOHE” value ([14]; 250 g ai/ha)?
Answer: Its value is 90.

Question: What about the “phytotoxicity rating SORHA” value ([15]; 63 g ai/ha) of the same compound?
Answer: Its value is 0.

Question: What about the “phytotoxicity rating SORHA” value ([15]; 250 g ai/ha) of the same compound?
Answer: The value was 0.

Question: What about the “phytotoxicity rating DIGSA” value ([16]; 63 g ai/ha) of the same compound?
Answer: Its value is 0.

Question: And the “phytotoxicity rating DIGSA” value ([16]; 250 g ai/ha)?
Answer: The value was 0.

Question: And the “phytotoxicity rating AMARE” value ([17]; 63 g ai/ha)?
Answer: Its value is 30.

Question: And the “phytotoxicity rating AMARE” value ([17]; 250 g ai/ha)?
Answer: Its value is 30.

Question: What about the “phytotoxicity rating CASOB” value ([18]; 63 g ai/ha) of the same compound?
Answer: Its value is 0.

Question: And the “phytotoxicity rating CASOB” value ([18]; 250 g ai/ha)?
Answer: Its value is 30.

Question: And the “phytotoxicity rating ABUTH” value ([19]; 63 g ai/ha)?
Answer: The value was 60.

Question: And the “phytotoxicity rating ABUTH” value ([19]; 250 g ai/ha)?
Answer: The value was 80.

Question: What about the “phytotoxicity rating CORN” value ([20]; 63 g ai/ha) of the same compound?
Answer: Its value is 10.

Question: What about the “phytotoxicity rating CORN” value ([20]; 250 g ai/ha) of the same compound?
Answer: The value was 20.

Question: What about the “phytotoxicity rating RICE” value ([21]; 63 g ai/ha) of the same compound?
Answer: Its value is 10.

Question: And the “phytotoxicity rating RICE” value ([21]; 250 g ai/ha)?
Answer: Its value is 10.
